Earlier results as cited in paper PMC5689474 (Amino acids, 2010).

How the values were obtained:
human δ-opioid receptor = human δ-opioid receptor (Homo sapiens, UniProt P41143); conditions: read-out: Binding Kiδ; [3H]DPDPE; ±SEM; ref Lipkowski et al. (1999)
[1] = ref Horan et al. 1993; Yamazaki et al. 2001
[2] = system: δ- and μ-opioid receptors; conditions: words; ref Lipkowski et al. 1987; Horan et al. 1993
[3] = after i.c.v. and i.t. administration; ref Lipkowski et al. 1987; Horan et al. 1993
[4] = molecular target: Mouse vas deferens (δ-opioid receptors); conditions: read-out: Functional bioactivity MVD (IC50); ±SEM; ref Lipkowski et al. (1999)
rat μ-opioid receptor = rat μ-opioid receptor (Rattus norvegicus, UniProt P33535); conditions: read-out: Binding Kiμ; [3H]DAMGO; ±SEM; ref Lipkowski et al. (1999)
Sequence of rat μ-opioid receptor (P33535 whole entry): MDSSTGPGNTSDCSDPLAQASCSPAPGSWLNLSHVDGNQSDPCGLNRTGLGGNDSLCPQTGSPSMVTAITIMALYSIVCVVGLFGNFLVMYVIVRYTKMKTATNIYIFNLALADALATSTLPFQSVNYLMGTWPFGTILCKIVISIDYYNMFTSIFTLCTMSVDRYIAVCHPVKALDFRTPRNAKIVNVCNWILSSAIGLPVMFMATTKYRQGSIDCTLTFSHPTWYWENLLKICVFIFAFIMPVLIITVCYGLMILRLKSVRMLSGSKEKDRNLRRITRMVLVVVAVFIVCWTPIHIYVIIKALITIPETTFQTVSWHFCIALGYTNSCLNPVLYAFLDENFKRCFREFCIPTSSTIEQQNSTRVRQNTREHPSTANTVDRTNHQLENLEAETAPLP

Sequence of human δ-opioid receptor (P41143 whole entry): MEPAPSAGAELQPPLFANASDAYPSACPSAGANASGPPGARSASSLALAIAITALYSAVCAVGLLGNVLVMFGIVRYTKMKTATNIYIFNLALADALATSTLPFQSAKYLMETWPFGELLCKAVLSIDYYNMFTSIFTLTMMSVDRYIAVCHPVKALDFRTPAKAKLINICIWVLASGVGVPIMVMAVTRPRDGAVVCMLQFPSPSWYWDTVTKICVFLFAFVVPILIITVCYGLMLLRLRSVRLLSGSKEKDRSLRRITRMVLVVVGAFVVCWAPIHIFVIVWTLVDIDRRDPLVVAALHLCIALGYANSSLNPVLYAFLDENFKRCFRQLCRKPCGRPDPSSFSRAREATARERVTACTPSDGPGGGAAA

In the case of “Tyr-D-Ala-Gly-Phe-NH-NH\-Phe\-Gly\-D-Ala\-Tyr [Bph]”, the Ki (human δ-opioid receptor) is given as 2.6 ± 0.4 nM, the “physical dependence compared with morphine” value [1] is given as “less physical dependence than morphine” and the “affinity for both δ- and μ-receptors” value [2] is given as “highly affinity for both δ- and μ-receptors”. For the same substance, the “potency compared with morphine” value [3] was “significantly higher than morphine”, the IC50 [4] was 27 ± 1.5 nM and the Ki (rat μ-opioid receptor) was 1.4 ± 0.2 nM.
